Entries after “also recorded” stand apart in the source; their conditions may differ. Like-named read-outs stand apart in the source and are kept apart here.
Assays:
dengue virus [1] = assay: Virucidal activity assay, 60-min incubation of drug with virus, plaque assay on BHK-21 cells; assay type: cell-based
Description: (§1) (A) Chemical structures and (B) ROCS overlay of ST-148 and niclosamide. […] Compound addition, viral growth, and cytotoxicity assays were performed as described in the legend to Fig. 2C. (D) Virucidal activity of compounds at the concentrations indicated was measured after 60-min incubation of drugs with virus-containing solutions at 37°C. Viral titer was quantified by plaque assay on BHK-21 cells. n = 3. Statistical significance was evaluated by one-way ANOVA with Sidak’s multiple-comparison test and indicated as follows: *, P < 0.05; **, P < 0.01; ****, P < 0.0001; ns, not significant. […] On the left, cells were pretreated for 2 h prior to infection, compounds were removed during a 1-h infection at an MOI of 0.5 PFU/cell and then readministered after removal of viral inoculum. On the right, cells were similarly infected and compounds were first introduced 4 h after starting the infection. […] (F) To test the effect of ST-148 and niclosamide on viral RNA replication, Huh7 cells were infected for 1 h at an MOI of 0.5 PFU/cell. […] Intracellular RNA was collected at the time points indicated and quantified by qRT-PCR. […] N = 4, two-way ANOVA with Dunnett’s multiple-comparison test. […] After 4 h of infection, 10 μM ST-148 or 1 μM niclosamide was added; extracellular virus was collected at 24 hpi and quantified by plaque assay.
Compounds were diluted to 100× in DMSO, then further diluted 1:100 into phosphate-buffered saline (PBS) containing dengue virus to a final volume of 200 μl and mixed. Aliquots were taken for plaque assays immediately after addition of compounds (time [T] = 0 min) or after incubation at 37°C for 60 min (T = 60 min).

dengue virus [2] = assay: Initial screening of hit compounds for anti-dengue activity in tissue culture cells (Table S1); assay type: cell-based; settings: viral titer relative to vehicle, tissue culture cell lines (BHK-21 48 hpi, Fig. S1; Huh7, Fig. 2C, 3C, 4C)
Description: For each query molecule, the top 500 compound hits obtained from the ROCS algorithm, as ranked by the Tanimoto combo score (see Data Set S1 in the supplemental material), were manually inspected for similar chemical and structural features. They were further prioritized by factors such as a lack of known side effects, commercial availability, and the intellectual property considerations that would be needed for worldwide, inexpensive use. Fourteen candidates were tested for their effects on dengue virus growth and toxicity in BHK-21 and Huh7 cells (see Table S1 and Fig. S1 in the supplemental material).
Supplementary file : TABLE S1 Summary of hits for lead compounds ARDP0006 and ST-148 screened for anti-dengue activity in tissue culture cells. Hit compounds were tested for anti-dengue activity and cell toxicity in tissue culture cell lines. Antiviral activity is summarized as follows: −, not antiviral, with titer greater than 50% of vehicle; +, weakly antiviral, with titer between 20 and 50% of vehicle; ++, moderately antiviral, with titer between 5 and 20% of vehicle; +++, highly antiviral, with titer less than 5% of vehicle. Toxicity at these doses is represented as follows: −, nontoxic, with cell viability greater than 80% of vehicle; +, mild toxicity, with cell viability between 60 and 80% of vehicle; +++, high toxicity, with cell viability less than 60% of vehicle. Data summarized here are depicted graphically in Fig. S1 and Fig. 2C, 3C, and [4]C. The Tanimoto combo score of each hit during initial ROCS screening is indicated; higher Tanimoto combo scores are indicative of increased chemical similarity. Download Table S1, PDF file, 0.04 MB.
Supplementary file : FIG S1 Initial screening of eliminated hit compounds for anti-dengue activity in tissue culture cells. BHK-21 cells were pretreated with the compounds at the indicated concentrations for 30 min, infected with dengue virus at an MOI of 0.1 PFU/cell for 1 h, and then posttreated with compound. At 48 hpi, cellular supernatant was collected and titered by plaque assay (purple). Cell viability in uninfected cells in the presence of compounds for 48 h was measured by WST assay (gray). Both viral titer and cell viability are normalized to their relative DMSO vehicle control, N = 2. Download FIG S1, PDF file, 0.06 MB.

[3] = single dose, ref PubChem database, cited from earlier work
DENV2 = assay: Antiviral activity in DENV2-infected Huh7 cells, infectious virus in supernatant by plaque assay; assay type: cell-based, dengue virus
Description: FIG 2 Pyrimethamine inhibits dengue virus and NS2B/3 proteinase cleavage like ARDP0006. (A) Chemical structures and (B) ROCS overlay of ARDP0006 and pyrimethamine. […] Infectious virus in cell supernatant was quantified by plaque assay at 24 hpi (left y axis, black or red). Cell viability was measured at the same pyrimethamine doses 24 h posttreatment by WST-1 assay (right y axis, gray). Viral titer and cell viability were normalized to DMSO-treated samples. (D) Splenic titers of DENV2-infected AGB6 mice at 4 days postinfection. Mice were infected with 1 × 10^6 PFU DENV2 and treated twice daily with 20 mg/kg pyrimethamine (n = 9) or a vehicle control (n = 10). Data were analyzed by two-tailed unpaired t test. (E) Cleavage kinetics of NS2B/3/4A in the presence of 100 μM pyrimethamine. NS2B/3/4A protein was expressed in vitro and radiolabeled with [^35S]methionine, followed by treatment with 100 μM pyrimethamine or DMSO. Reaction samples were obtained over a 45-min time course, separated by SDS-PAGE, and the fraction of uncleaved proteinase precursor remaining was determined as described previously ([23]). Data from three replicates were fit using single-phase exponential decay functions, and P value was determined by comparing the rate constant, K, of the models using the extra sum-of-squares F test.
Dengue plaque assays were carried out on BHK-21 cells in 24-well plates. Cells were infected with 10-fold serial dilutions of virus, which were allowed to adsorb for at least 1 h at 37°C, and overlaid with standard cell culture medium plus 0.37% (w/vol) sodium bicarbonate and 0.8% (w/vol) Aquacide II (Millipore Calbiochem). After 7 days of incubation at 37°C, 5% CO2, cells were fixed with 5% (final) formaldehyde and stained with crystal violet for plaque enumeration.
Between 4 × 10^4 and 1 × 10^5 Huh7 cells per well were seeded into 24-well plates 1 day prior to infection. Compounds were diluted to 100× final concentration in DMSO and then further diluted 1:100 into appropriate cell culture. Unless otherwise indicated, tested compounds were present for 1 h pretreatment and readministered for posttreatment following infection. […] Media and drugs were removed from cells for infection at a multiplicity of infection (MOI) of 0.1 or 0.5 in 200 μl cold medium per well. After 1 h at 37°C, virus inoculum was removed by aspiration and replaced with medium plus compound or control. After 24-h total infection, infectious virus was quantified by plaque assay. Antiviral IC50 dose-response curves were fitted in GraphPad Prism 8 using the “[inhibitor] versus response, variable slope” function with a constraint “bottom > 0.” IC90 values are defined as the dose at which “y = (span × 0.1) + bottom.”

dengue viral RNA = assay: Intracellular viral RNA quantification by qRT-PCR in infected Huh7 cells; assay type: cell-based, dengue virus; settings: added 4 h postinfection at IC90 dose (5.6 μM ST-148, 0.66 μM niclosamide)
Description: as §1

Zika virus = system: Zika virus; parameters: method as in PMID 27571349; settings: read-out: IC50, previously reported value for Zika virus; cited from earlier work

SMILES: O=C(Nc1ccc([N+](=O)[O-])cc1Cl)c1cc(Cl)ccc1O [Niclosamide, niclosamide]
- Virucidal effect of the combination with ST-148 (dengue virus [1]; 1 μM niclosamide added to 0.1 μM ST-148, 1 h at 37°C): significantly increased the virucidal effect of ST-148; also recorded: augment the virucidal activity of ST-148
- Virucidal activity (viral infectivity after coincubation) (dengue virus [1]; niclosamide alone at a much higher concentration, 1 h at 37°C): significantly, albeit slightly, virucidal
- Antiviral (dengue virus [2]): +++ (highly antiviral, with titer less than 5% of vehicle)
- LD50 ([3]; IP): 7.5 mg/kg
- LD50 ([3]; Oral): 1000 mg/kg
- Virion production at increased dose after entry (DENV2; 10 μM ST-148 or 1 μM niclosamide added after 4 h of infection, extracellular virus at 24 hpi): effective during later, postentry stages; also recorded: inhibited virion production
- IC90 (DENV2; Dengue virus, Huh-7, DENV2-infected Huh7 cells, from dose-response curve fit, 24 hpi): 660 nM
- IC50 (DENV2; Dengue virus, Huh-7, DENV2-infected Huh7 cells, single infectious cycle, plaque assay at 24 hpi, read-out: IC50 of viral inhibition (infectious extracellular virus)): 280 nM
- Viral titer on delayed addition of compound (DENV2; IC90 dose first added 4 h after infection, Huh7, 24 hpi): eliminated the observed reduction of viral titer
- Viral RNA abundance (dengue viral RNA): no difference in viral RNA abundance
- IC50 (Zika virus): 280 nM
